From article PMC8717711, “Metabolites From the Mangrove-Derived Fungus Cladosporium sp. HNWSW-1” (Frontiers in Chemistry, 2021)

Experiments:
[1] = Cytotoxicity by the MTT method, BEL-7402; format: cell-based; details: human, BEL-7042 (printed in table; BEL-7402 in text) cells, 36 h incubation with compound
Experimental: (§1) The cytotoxic activity of compounds 1–3 and 5–8 against human cervical cancer cell lines (Hela), human hepatic carcinoma cell lines (BEL-7402), leukemia cell lines (K562), and human gastric cell lines (SGC-7901) was assayed by the MTT method ([Mosmann, 1983]; [Wang et al., 2013]). These cell lines were purchased from Shang Hai Cell Bank of Chinese Academy of Sciences. Hela, BEL-7402, K562, and SGC-7901 cell lines were cultured in RPMI-1640 with 10% FBS under a humidified atmosphere of 5% CO2 and 95% air at 37°C, and 198 μl of the cell suspension was plated in 96-well microtiter plates. After being incubated for 24 h, 2 μl of the test solutions in DMSO was added to each well and further incubated for 36 h. The MTT solution (20 μl, 5 mg/ml in IPMI-1640 medium) was then added to each well and further incubated for 4 h. Finally, the medium containing MTT (150 μl) was gently replaced by DMSO and pipetted to dissolve any formazan crystals formed. Absorbance was then determined on a Multiskan FC photometric microplate reader (Thermo Fisher Scientific) at 570 nm. Adriamycin was used as the positive control drug.

[2] = Cytotoxicity by the MTT method, K562; format: cell-based; details: human, K562 cells (leukemia cell line), 36 h incubation with compound
Experimental: as §1

[3] = Cytotoxicity by the MTT method, Hela; format: cell-based; details: human, HeLa cells (human cervical cancer cell line), 36 h incubation with compound
Experimental: as §1

[4] = Cytotoxicity by the MTT method, SGC-7901; format: cell-based; details: human, SGC-7901 cells (human gastric cell line), 36 h incubation with compound
Experimental: as §1

[5] = target: α-glucosidase (from baker's yeast); experiment: α-Glycosidase inhibitory activity (p-nitrophenyl α-D-glucopyranoside substrate); format: biochemical; details: α-glucosidase 0.2 U/ml, phosphate buffer pH 6.8, pNPG substrate, 37°C 15 min, absorbance 405 nm
Experimental: A mixture including 25 μl of different compounds (final concentrations of 0.0625, 0.125, 0.25, 0.5, and 1.0 mM), 25 μl of α-glucosidase (0.2 U/ml, from baker’s yeast, Sigma), and 175 μl phosphate buffer (pH 6.8) was left to stand for 10 min at room temperature in a 96-well plate, and then 25 μl of 23.2 mM p-nitrophenyl α-D-glucopyranoside (Sigma-Aldrich) was added and further incubated at 37°C for 15 min. Finally, the absorbance was measured at 405 nm to determine the amount of p-nitrophenol cleaved by the enzyme using a Synergy H1 Hybrid Multi-Mode Microplate Reader (BioTek Instruments, Inc.). The control was prepared by adding phosphate buffer instead of the sample in the same way as the test. The blank was prepared by adding phosphate buffer instead of α-glucosidase using the same method.

| Compound | IC50 [5] [µM] | IC50 at 36 h [1] [µM] | IC50 at 36 h [2] [µM] | IC50 at 36 h [3] [µM] | IC50 at 36 h [4] [µM] |
| --- | --- | --- | --- | --- | --- |
| COc1cccc2c1C(=O)c1c(O)c3c(c(O)c1C2=O)C[C@@](O)(C(=O)CO)C[C@@H]3O[C@H]1C[C@H](N)[C@H](O)[C@H](C)O1 [Adriamycin, reference compound] | – | 0.47 ± 0.01 | 0.1 ± 0.01 | 0.28 ± 0.01 | 0.22 ± 0.01 |
| C[C@@H](O)CCCCC[C@H](O)[C@@H]1C=CC(=O)O1 [Compound 6, (4S,5S,11R)-iso-cladospolide B] | > 1000 | > 100 | > 100 | > 100 | > 100 |
| C[C@H](O)CCCCC[C@H](O)[C@@H]1C=CC(=O)O1 [Compound 7, (4S,5S,11S)-iso-cladospolide B] | > 1000 | > 100 | > 100 | > 100 | > 100 |
| C[C@@H](O)CCCCC[C@H](O)[C@H]1C=CC(=O)O1 [Compound 8, (4R,5S,11R)-iso-cladospolide B] | > 1000 | > 100 | > 100 | > 100 | > 100 |

Continued, in another order:

| IC50 [5] [µM] | Compound | IC50 at 36 h [1] [µM] | IC50 at 36 h [2] [µM] | IC50 at 36 h [3] [µM] | IC50 at 36 h [4] [µM] |
| --- | --- | --- | --- | --- | --- |
| 320 ± 10 | CC(O)(CCC(=O)O)CCc1cc(C(=O)O)ccc1O (stereo not drawn) [Compound 1, cladoslide A] | > 100 | 13.1 ± 0.08 | > 100 | > 100 |
| > 1000 | COC(=O)CCC(C)(O)CCc1cc(C(=O)O)ccc1O (stereo not drawn) [Compound 2, cladoslide B] | > 100 | > 100 | > 100 | > 100 |
| > 1000 | CC(C)C[C@H](NC(=O)c1nc(C(=O)O)cc2c1[nH]c1ccccc12)C(=O)O [Compound 3, cladospomine] | > 100 | > 100 | > 100 | > 100 |
| 170 ± 10 | CC(=O)NCC(=O)c1c[nH]c2ccccc12 [Compound 5, N-acetyl-β-oxotryptamine] | > 100 | > 100 | > 100 | > 100 |
